# Data as given in patent US10766882B2, “1,2-naphthoquinone based derivative and method of preparing the same” (YUNGJIN PHARM. CO., LTD., priority 2013, dated 2020).
# Target: NQO1 protein (Homo sapiens, UniProt P15559)
# Experiment: NQO1 activity measurement (cytochrome C reduction)
# Assay type: biochemical
# Conditions: 5 ng NQO1 protein, 200 μM NADH, 77 μM cytochrome C, 37° C., absorbance 550 nm for 10 minutes
# Description: An enzyme reaction solution included 25 mM Tris/HCl (pH 7.4), 0.14% bovine serum albumin, 200 μM NADH, 77 μM cytochrome C, and 5 ng of NQO1 protein. Enzymatic reaction was initiated by adding NADH and performed at 37° C. In this regard, a reaction rate was measured by observing absorbance, which was increased due to reduction of cytochrome C, at 550 nm for 10 minutes and NQO1 activity was represented as an amount of reduced cytochrome C [nmol cytochrome C reduced/min/μg protein].
# Extinction coefficient for cytochrome C:21.1 mmol/L/cm=21.1 μmol/ml/cm
# NQO1 protein, sequence (P15559 whole entry, species assumed): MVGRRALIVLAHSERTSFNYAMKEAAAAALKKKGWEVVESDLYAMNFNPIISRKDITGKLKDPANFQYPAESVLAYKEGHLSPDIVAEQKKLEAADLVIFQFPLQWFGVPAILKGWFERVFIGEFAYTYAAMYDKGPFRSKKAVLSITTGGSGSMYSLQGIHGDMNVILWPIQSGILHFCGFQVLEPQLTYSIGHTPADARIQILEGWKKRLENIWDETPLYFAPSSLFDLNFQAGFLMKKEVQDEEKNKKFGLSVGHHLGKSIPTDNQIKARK
row,SMILES,"NQO1 activity (5 μM, [nmol cytochrome C reduced/min/μg protein])"
1,CC(C)c1nc2c([nH]1)C(=O)C(=O)c1cc(NC(=O)C3CC3)ccc1-2 [Example 20],6.4 nmol cytochrome C reduced/min/μg protein
2,Cc1cc(F)ccc1OCc1nc2c([nH]1)C(=O)C(=O)c1ccccc1-2 [Example 50],100.6 nmol cytochrome C reduced/min/μg protein
3,"CN(Cc1nc2c([nH]1)C(=O)C(=O)c1ccccc1-2)c1ccccc1 [Example 51, 2-((methyl (phenyl)amino)methyl)-3H-naphtho[2,1-d]imidazole-4,5-dione]",140.8 nmol cytochrome C reduced/min/μg protein
4,Cc1cc(F)ccc1N(Cc1nc2c([nH]1)C(=O)C(=O)c1ccccc1-2)C(=O)OC(C)(C)C [Example 52],60.3 nmol cytochrome C reduced/min/μg protein
5,Cc1cc(F)ccc1NCc1nc2c([nH]1)C(=O)C(=O)c1ccccc1-2 [Example 53],112.6 nmol cytochrome C reduced/min/μg protein
6,O=C1C(=O)c2[nH]c(CCc3ccc(F)cc3)nc2-c2ccccc21 [Example 54],126.9 nmol cytochrome C reduced/min/μg protein
7,CN(C)Cc1nc2c([nH]1)C(=O)C(=O)c1ccccc1-2 [Example 59],149.3 nmol cytochrome C reduced/min/μg protein
8,CC(c1nc2c([nH]1)C(=O)C(=O)c1ccccc1-2)N(C)C (stereo not drawn) [Example 60],140.1 nmol cytochrome C reduced/min/μg protein
9,CC(c1nc2c([nH]1)C(=O)C(=O)c1ccccc1-2)N1CCOCC1 (stereo not drawn) [Example 61],204.1 nmol cytochrome C reduced/min/μg protein
10,"CN(C)c1nc2c([nH]1)C(=O)C(=O)c1ccccc1-2 [Example 62, 2-(dimethylamino)-3H-naphtho[2,1-d]imidazole-4,5-dione]",113.3 nmol cytochrome C reduced/min/μg protein
11,"O=C1C(=O)c2[nH]c(N3CCCC3)nc2-c2ccccc21 [Example 63, 2-(pyrrolidin-1-yl)-3H-naphtho[2,1-d]imidazole-4,5-dione]",40.3 nmol cytochrome C reduced/min/μg protein
12,CC(C)c1nc2c(n1CCCl)C(=O)C(=O)c1ccccc1-2 [Example 64],189.5 nmol cytochrome C reduced/min/μg protein
13,CC(c1nc2c([nH]1)C(=O)C(=O)c1ccccc1-2)N1CCCC1 (stereo not drawn) [Example 65],93.5 nmol cytochrome C reduced/min/μg protein
14,CC(C)c1nc2c(n1CCN1CCOCC1)C(=O)C(=O)c1ccccc1-2 [Example 66],56.0 nmol cytochrome C reduced/min/μg protein
15,"O=C1C(=O)c2[nH]c(N3CCOCC3)nc2-c2ccccc21 [Example 67, 2-morpholino-3H-naphtho[2,1-d]imidazole-4,5-dione]",143.1 nmol cytochrome C reduced/min/μg protein
16,"CC(C)c1nc2c(n1CCO)C(=O)C(=O)c1ccccc1-2 [Example 68, 3-(2-hydroxyethyl)-2-isopropyl-3H-naphtho[2,1-d]imidazole-4,5-dione]",143.0 nmol cytochrome C reduced/min/μg protein
17,CC(C)c1nc2c(n1Cn1c(C(C)C)nc3c1C(=O)C(=O)c1ccccc1-3)C(=O)C(=O)c1ccccc1-2 [Example 69],160.5 nmol cytochrome C reduced/min/μg protein
18,"O=C1C(=O)c2[nH]c(Cl)nc2-c2ccccc21 [Example 70, 2-chloro-3H-naphtho[2,1-d]imidazole-4,5-dione]",83.9 nmol cytochrome C reduced/min/μg protein
19,CCOc1nc2c([nH]1)C(=O)C(=O)c1ccccc1-2 [Example 71],124.7 nmol cytochrome C reduced/min/μg protein
20,CC(C)c1nc2c(n1CCN(C)C)C(=O)C(=O)c1ccccc1-2 [Example 72],51.0 nmol cytochrome C reduced/min/μg protein

row,SMILES,"NQO1 activity (5 μM, [nmol cytochrome C reduced/min/μg protein])"
1,O=C1C(=O)c2[nH]c(C3CCCO3)nc2-c2ccccc21 (stereo not drawn) [Example 73],180.8 nmol cytochrome C reduced/min/μg protein
2,CCOc1nc2c(n1C)C(=O)C(=O)c1ccccc1-2 [Example 74],193.5 nmol cytochrome C reduced/min/μg protein
3,"CN1CCN(c2nc3c([nH]2)C(=O)C(=O)c2ccccc2-3)CC1 [Example 75, 2-(4-methylpiperazin-1-yl)-3H-naphtho[2,1-d]imidazole-4,5-dione]",26.9 nmol cytochrome C reduced/min/μg protein
4,CC(C)(O)c1nc2c([nH]1)C(=O)C(=O)c1ccccc1-2 [Example 76],183.5 nmol cytochrome C reduced/min/μg protein
5,CCC(CC)c1nc2c([nH]1)C(=O)C(=O)c1ccccc1-2 [Example 77],223.3 nmol cytochrome C reduced/min/μg protein
6,O=C1C(=O)c2[nH]c(COc3ccc(F)cc3)nc2-c2ccccc21 [Example 79],96.9 nmol cytochrome C reduced/min/μg protein
7,Cn1c(COc2ccc(F)cc2)nc2c1C(=O)C(=O)c1ccccc1-2 [Example 80],162.6 nmol cytochrome C reduced/min/μg protein
8,CC(C)c1nc2c(n1Cc1ccncc1)C(=O)C(=O)c1ccccc1-2 [Example 81],169.4 nmol cytochrome C reduced/min/μg protein
9,CC(F)(F)c1nc2c([nH]1)C(=O)C(=O)c1ccccc1-2 [Example 82],70.2 nmol cytochrome C reduced/min/μg protein
10,CC(C)c1nc2c(n1Cc1cccnc1)C(=O)C(=O)c1ccccc1-2 [Example 83],162.5 nmol cytochrome C reduced/min/μg protein
11,CC(C)c1nc2c(n1Cc1ccccn1)C(=O)C(=O)c1ccccc1-2 [Example 84],172.0 nmol cytochrome C reduced/min/μg protein
12,CC(C)c1nc2c(n1C(C)C)C(=O)C(=O)c1ccccc1-2 [Example 85],135.4 nmol cytochrome C reduced/min/μg protein
13,CCc1nc2c(n1CC)C(=O)C(=O)c1ccccc1-2 [Example 86],220.0 nmol cytochrome C reduced/min/μg protein
14,O=C1C(=O)c2[nH]c(-c3cccnc3)nc2-c2ccccc21 [Example 87],94.7 nmol cytochrome C reduced/min/μg protein
15,CCc1nc2c(n1CC)C(=O)C(=O)c1cc(F)ccc1-2 [Example 88],187.4 nmol cytochrome C reduced/min/μg protein
16,CCc1nc2c(n1C(C)C)C(=O)C(=O)c1cc(F)ccc1-2 [Example 89],145.0 nmol cytochrome C reduced/min/μg protein
17,CCc1nc2c(n1C(C)C)C(=O)C(=O)c1ccccc1-2 [Example 90],241.3 nmol cytochrome C reduced/min/μg protein
18,CC(O)c1nc2c(n1C(C)C)C(=O)C(=O)c1ccccc1-2 (stereo not drawn) [Example 91],206.9 nmol cytochrome C reduced/min/μg protein
19,O=C1C(=O)c2[nH]c(-c3nc4c([nH]3)C(=O)C(=O)c3ccccc3-4)nc2-c2ccccc21 [Example 92],186.8 nmol cytochrome C reduced/min/μg protein
